The test system of this experiment is CEM cells HIV-1 protection, formazan growth assay. Briefly: NCI AIDS Antiviral Assay. The following applies: for pIC50: measured here: growth of uninfected CEM cells. In outline:
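Protection of CEM cells against HIV-1 was scored from cell growth (soluble formazan) across five concentrations, with parallel uninfected cells. Lack of protection may reflect toxicity.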

pEC50, pIC50: −log10 of the molar value. Values joined by “and” are separate entries in the source; they are usually repeats but may differ in a detail not shown here. Equal entries are not always repeated. Active and inactive are the calls of the source.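 Rule for the calls: active = compounds giving half or more protection of infected cells from virus-caused growth loss, again on retest; inactive = the rest.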 A value given as a limit tells only on which side of the number the result lay.

Regarding `NC(CSS(=O)(=O)O)=NCC1CCCCC1`, the pEC50 is below 3.70 and the negative logarithm of the IC50 (pIC50) was 4.23.

On to `CCOc1ccc(NC(=O)C(=O)CC(=O)c2c[n+](=O)c3cc(C)c(C)cc3n2[O-])cc1`, for which the pEC50 is below 5.07 and the negative-log IC50 (pIC50) is below 5.07.

With `N#C[C@@]12CCCC(=O)[C@@H]1[C@H]1CCC[C@H]12`, the pEC50 was below 3.70 and the pIC50 is 4.11.

`c1ccc(CCC[P+](c2ccccc2)(c2ccccc2)c2ccccc2)cc1`: the pEC50 is below 3.70 and the negative logarithm of the IC50 (pIC50) is 6.16.

As to `CCCCCCCCCCCCCCCCC(c1ccc(O)c(C(=O)O)c1)c1ccc(O)c(C(=O)O)c1`, the pEC50 is below 3.64 and the pIC50 was 4.04.

In the case of `CC1(C)C(=O)/C=C\C(=O)C(C)(C)C2=CC=C(O2)C(C)(C)C(=O)/C=C\C(=O)C(C)(C)C2=CC=C1O2`, the result was inactive.

As to `CCOC(=O)C1(NC(=O)OC(C)(C)C)CCc2[nH]oc(=O)c2C1` (stereo not drawn), the pEC50 is below 3.70 and the pIC50 is below 3.70.

As to `Cc1ccc(Cc2n[nH]c(=O)n2N2C(=O)c3ccccc3C2=O)cc1`, the pEC50 is below 3.70 and the negative logarithm of the IC50 (pIC50) was below 3.70.

Take `NC1=CN(Cc2ccccc2)C2=N/C(=C\c3ccccc3)C(=O)N12`: the pEC50 was below 3.70 and the pIC50 was 4.11.

In the case of `C/C(=N\NC(N)=S)C(CN1CCCCC1)C(C1=C(O)c2ccccc2OC1)c1ccccc1` (stereo not drawn), the pEC50 was below 3.65 and the pIC50 was 3.91.

For the compound `Cc1[nH]c2nccn2c(=O)c1CCO`, the pEC50 was below 3.70 and the pIC50 was below 3.70.

Turning to `CC1(O)Oc2ccc3ccccc3c2C=C1C(N)=O` (stereo not drawn), the pEC50 was below 3.70 and the pIC50 was 3.74.

Consider `O=C1/C=C(/c2ccc(O)cc2)[C@@H](O)Cc2ccc(O)cc2O1`, for which the pEC50 is below 3.70 and the pIC50 is below 3.70.

Consider `Cc1cc(=O)n2nc(CCl)sc2n1`, for which the pEC50 is below 3.70 and the pIC50 is 5.03.

With `COc1cc(C=Nc2ccc(C(C)C)cc2)cc(OC)c1OC`, the pEC50 is below 4.78 and the pIC50 was below 4.78.

As for `CNCCSSCCN`, the pEC50 is below 3.70 and the pIC50 was below 3.70.

For `CCC[CH2][Sn]([CH2]CCC)([O]C(=O)c1cc(OC)c(OC)c(OC)c1)[O]C(=O)c1cc(OC)c(OC)c(OC)c1`, the pEC50 is below 4.96 and the negative logarithm of the IC50 (pIC50) was 5.84.

For `O/N=C1/COC(C(F)(F)F)(C(F)(F)F)C1`, the pEC50 is below 3.70 and the pIC50 is below 3.70.

In the case of `O=C(CC(=O)N1N=C(c2ccccc2)C(N=Nc2ccccc2[N+](=O)[O-])C1=O)Nc1ccccc1F` (stereo not drawn), the pEC50 was below 4.56 and the pIC50 was below 4.56.

As for `FC(F)(F)c1cccnc1Sc1nc2ccccc2s1`, the pEC50 was below 3.70 and the negative logarithm of the IC50 (pIC50) was 4.42.

Turning to `Cc1cc(NS(=O)(=O)c2ccc(NC(=O)c3ccc4nc5ccccc5c(Nc5ccc(S(=O)(=O)N=C(N)N)cc5)c4c3)cc2)no1`, the pEC50 was below 4.12 and the negative-log IC50 (pIC50) is 4.61.

Take `CN1CCCn2c(nc3ccccc3c2=O)C1`: the pEC50 is below 2.96 and the pIC50 is below 2.96.

For `COC(=O)C1=Nc2c(C)nn(-c3ccccc3)c2N=C(c2ccc(C)cc2)C1`, the pEC50 was below 3.70 and the pIC50 was below 3.70.

On to `C=CCSS/C=C/CS(=O)CC=C` (stereo not drawn), for which the pEC50 was below 4.09 and the pIC50 is 6.16.

For `Cc1nc(-n2nc(-c3ccccc3)cc2-c2ccccc2)sc1C(=O)/C=C/c1ccccc1`, the pEC50 is below 4.79 and the pIC50 is 5.08.

As for `NCCCCCS(=O)(=O)O`, the pEC50 is below 2.03 and the pIC50 is below 2.03.

With `Cc1c(-c2nnc(-c3ccccc3)o2)c(=O)n(-c2ccccc2)n1C`, the pEC50 is below 3.70 and the pIC50 was below 3.70.

As for `Nc1ncnc2oc(-c3ccccc3)nc12`, the pEC50 is below 3.71 and the negative logarithm of the IC50 (pIC50) was below 3.71.

Consider `Nc1ccc(S(=O)(=O)NCCSSCCNS(=O)(=O)c2ccc(N)cc2)cc1`, for which the pEC50 is below 3.70 and the pIC50 was 4.34.

On to `CC(=O)OCC1OC(n2c(C)c(N=Nc3ccccc3)c(C)c(C#N)c2=S)C(OC(C)=O)C(OC(C)=O)C1OC(C)=O` (stereo not drawn), for which the pEC50 is below 3.70 and the pIC50 is below 3.70.

As to `[O-][N+](=Nc1ccccc1CO)c1ccccc1CO`, the pEC50 was 3.96 and the pIC50 is below 3.70.

With `C1CCN2CC34CC(CC5CCCN(C6CCCC3N6)C54)C2C1` (stereo not drawn), the pEC50 is below 3.51 and the pIC50 was below 3.51.

In the case of `CCOC(=O)/C(F)=C/c1cccc(C#N)c1`, the pEC50 is below 3.93 and the pIC50 is below 3.93.

As for `O=[N+]([O-])c1ccc(CSC2=C(c3ccc(Cl)cc3)S/C(=C3\SC(SCc4ccc([N+](=O)[O-])cc4)=C(c4ccc(Cl)cc4)S3)S2)cc1`, the pEC50 is below 3.70 and the pIC50 is below 3.70.

On to `C=CC(C)(C)N1c2ccccc2[C@]2(O)C[C@@H]3C(=O)N4/C=C\C(C)(C)c5[nH]c6ccccc6c5/C=C\4C(=O)N3[C@H]12`, for which the result was inactive.

As to `CCCCCC=C(c1cc(C)c(OC)c(C(=O)OC)c1)c1cc(C)c(OC)c(C(=O)OC)c1`, the pEC50 is below 4.29 and the negative logarithm of the IC50 (pIC50) was 4.59.

Take `O=C(Oc1cccc2cccnc12)c1ccccc1`: the pEC50 was below 3.70 and the pIC50 is 4.47.

Turning to `Cc1cc(C)c(C(=O)C(C)C(c2ccccc2)c2ccc(Cl)cc2)c(C)c1` (stereo not drawn), the pEC50 was below 4.58 and the pIC50 is below 4.58.

For `C#CC[N+](C)(CC#C)CC#C`, the result was inactive.

For the compound `O=[N+]([O-])c1cc(Cl)ccc1Sc1ccc(Cl)cc1[N+](=O)[O-]`, the pEC50 was below 3.89 and the pIC50 was below 3.89.

In the case of `C=CCNC(=S)/N=C/c1c(O)[nH]c(=O)[nH]c1=O`, the outcome was inactive.

Take `CP(C)CC[PH+](CC[PH+](C)C)CC[PH+](C)C.[C-]#[O+].[C-]#[O+].[W]`: the result was inactive.

Consider `CCOC(=O)C1CCC(=O)N1C(=O)c1ccccc1` (stereo not drawn), for which the pEC50 was below 3.70 and the negative-log IC50 (pIC50) was below 3.70.

Turning to `O=C(NC(Nc1ccc(F)c(Cl)c1)(C(F)(F)F)C(F)(F)F)C(C(F)(F)F)C(F)(F)F`, the pEC50 is below 3.70.

`CN1C/C(=C\c2ccccc2[N+](=O)[O-])C(=O)/C(=C/c2ccccc2[N+](=O)[O-])C1`: the pEC50 is below 5.70; the pIC50 was 6.78 and 7.06.

Take `Cc1nn(C(=O)c2ccc(Cl)cc2)c2c1C(c1ccc(Cl)cc1)SC(N)=N2` (stereo not drawn): the pEC50 was below 3.70 and the pIC50 is 4.44.

Turning to `CSC(SC)=C(C#N)C(=O)Nc1ccc(Cl)cc1`, the pEC50 is below 4.83 and the pIC50 is 5.27.

As for `CC12OC3(C)c4ccccc4OP3(c3ccccc3)(Oc3ccccc31)O2` (stereo not drawn), the pEC50 is below 4.10 and the pIC50 was below 4.10.

In the case of `O=C(O)CCNC(=O)c1ccccc1SC(=O)CCCC[n+]1ccccc1`, the pEC50 was 4.66 and the pIC50 was below 3.70.

With `O=C(OCCOCCOC(=O)c1c[nH]cc1-c1ccccc1)c1c[nH]cc1-c1ccccc1`, the outcome was inactive.

As for `CC1C2CCC3(CCC4C5(C)CCCC4(CN(CCO)C5)C3C2)C1O` (stereo not drawn), the outcome was inactive.

For `CCOC(=O)/C=C\SCC(N)C(=O)O` (stereo not drawn), the pEC50 is below 3.24 and the negative logarithm of the IC50 (pIC50) was 3.51.

As to `O=[N+]([O-])C(=C/c1cccc2ccccc12)/C(=C\c1cccc2ccccc12)[N+](=O)[O-]`, the pEC50 is below 4.70 and the negative-log IC50 (pIC50) is 5.04.

Usually pEC50 stands for the negative decadic logarithm of the EC50, by convention in mol/L. For orientation: pIC50 means the negative decadic logarithm of the IC50, by convention in mol/L. Low values mean a high IC50, high ones a low IC50.

The values above are taken from PubChem BioAssay AID179 (DTP/NCI, 2004).
